Reference: PubChem BioAssay AID1406 (The Scripps Research Institute Molecular Screening Center, 2008)
Active and inactive are the calls of the source.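 Rule for the calls: active = STAT1 reporter activators whose half-maximal activating concentration EC50 is 10 µM or lower; inactive = EC50 above 10 µM or no activation.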

System: NIH 3T3 STAT1 luciferase reporter, luminescence
Assay: STAT1 transcription enhancement, IFN-gamma induced – cell-based, NIH 3T3, luciferase luminescence, counter-screen for STAT3 activator project, dose response (AID 1406)
[1] = cells stimulated with IFN-gamma at EC80

| Compound | EC50 [1] | EC50 |
| --- | --- | --- |
| COCc1cc(=O)n2c(-c3ccccc3OC)n[nH]c2n1 | > 55.7 µM (inactive) |  |
| COc1ccccc1NC(=O)c1[nH]c(C)c(C(C)=O)c1C | > 55.7 µM (inactive) |  |
| CCN1CCN(C(=O)c2cc3c(-c4ccc(Cl)cc4)nn(C)c3s2)CC1 | > 55.7 µM (inactive) |  |
| c1ccc2c(CNC3CCCCCC3)c[nH]c2c1 |  | > 55.7 µM (inactive) |
| Cc1ccc(CC(=O)Nc2nc3c(s2)CCCC3)cc1 | > 55.7 µM (inactive) |  |
| CN1CCN(CCCNC(=O)c2cc3c(-c4ccc(Cl)cc4)nn(C)c3s2)CC1 | > 55.7 µM (inactive) |  |
| O=C(CCc1nnc(Cc2ccc3c(c2)OCO3)o1)NCc1nc2ccccc2s1 | > 55.7 µM (inactive) |  |
| Cn1nc(-c2ccc(Cl)cc2)c2cc(C(=O)NCC3CCCO3)sc21 (stereo not given) | > 55.7 µM (inactive) |  |
| CC(C)CC1c2[nH]c3ccccc3c2CCN1C(=O)CCC(=O)N(C)C (stereo not given) | > 55.7 µM (inactive) |  |
| CCOC(=O)CC1C(=O)NCCN1C(=O)c1cc2c(=O)n3cccc(C)c3nc2s1 (stereo not given) | > 55.7 µM (inactive) |  |
| COc1ccc(C2c3[nH]c4ccccc4c3CCN2C(=O)c2ccc(=O)n(C)n2)c(F)c1 (stereo not given) | > 55.7 µM (inactive) |  |
| CCOc1ccc(CN2CCN(Cc3cc4ccccc4[nH]3)CC2CCO)cc1 (stereo not given) | > 55.7 µM (inactive) |  |
| Cc1nc2c(n1C1CCCCC1)C(=O)c1ccccc1C2=O | > 55.7 µM (inactive) |  |
| CC(=O)NCCC(=O)N1CCc2c([nH]c3ccccc23)C1c1cccc(C)c1 (stereo not given) | > 55.7 µM (inactive) |  |
| CCOc1ccccc1-c1n[nH]c(=S)o1 | > 55.7 µM (inactive) |  |
| COc1ccc(Cl)cc1-c1nc(-c2ccc(Br)o2)no1 | > 55.7 µM (inactive) |  |
| O=C(Nc1ccccc1O)c1csc2c1CCCC2 | > 55.7 µM (inactive) |  |
| Cn1nc(-c2ccc(Cl)cc2)c2cc(C(=O)NCCN3CCOCC3)sc21 | > 55.7 µM (inactive) |  |
| CCCc1nnc(N2C(=O)c3cccc4cccc(c34)C2=O)s1 | > 55.7 µM (inactive) |  |
| O=C(Cc1cnc2ncnn2c1)N1CCc2c([nH]c3ccccc23)C1c1ccccc1F (stereo not given) | > 55.7 µM (inactive) |  |
| CN(C)C(CN1C(=O)C2CC=CCC2C1=O)c1cn(C)c2ccccc12 (stereo not given) | > 55.7 µM (inactive) |  |
| CCOc1ccccc1CN1CCN(Cc2cc3ccccc3[nH]2)CC1CCO (stereo not given) | > 55.7 µM (inactive) |  |
| O=C(Cc1c[nH]c2ccccc12)Nc1nc2ccccc2[nH]1 | > 55.7 µM (inactive) |  |

| Compound | EC50 [1] | EC50 |
| --- | --- | --- |
| O=c1c2ccccc2ncn1Cc1ccco1 | > 55.7 µM (inactive) |  |
| COc1ccc(Cl)cc1NC(=O)Nc1ccc(Br)cn1 | > 55.7 µM (inactive) |  |
| COc1ccc(-c2nc3scc(-c4ccccc4)n3n2)cc1 | > 55.7 µM (inactive) |  |
| CN(Cc1ccccc1)Cc1c[nH]c2ccccc12 | > 55.7 µM (inactive) |  |
| Cn1c(CNc2ccccc2O)nc2ccccc21 | > 55.7 µM (inactive) |  |
| COc1ccc(-c2nnc(Nc3nc4c(OC)cccc4s3)o2)cc1 | > 55.7 µM (inactive) |  |
| Cc1cccc(NC(=O)c2cc([N+](=O)[O-])ccc2Cl)c1O | > 55.7 µM (inactive) |  |
| CN1C(=O)c2ccccc2C(C(=O)NCCCN2CCCC2=O)C1c1c[nH]c2ccccc12 (stereo not given) | > 55.7 µM (inactive) |  |
| Cc1cccc2c1NC(=O)/C2=C\C(=O)c1cccs1 | > 55.7 µM (inactive) |  |
| Cc1nc2ccccc2cc1O | > 55.7 µM (inactive) |  |
| Nc1ccccc1Sc1nc2ccccc2[nH]1 | > 55.7 µM (inactive) |  |
| COc1ccc(Cl)cc1NC(=O)c1oc(C)nc1C | > 55.7 µM (inactive) |  |
| CCCN(CCC)C(=O)Cn1c2ccccc2c2nc(=O)cc(C)n21 | > 55.7 µM (inactive) |  |
| COC(=O)C(NC=O)C(O)(Cc1ccccc1)C(F)(F)F (stereo not given) | > 55.7 µM (inactive) |  |
| O=C(O)C1CC=CCC1C(=O)Nc1ccc(S(=O)(=O)N2CCCc3ccccc32)cc1 (stereo not given) | > 55.7 µM (inactive) |  |
| CCOC(=O)c1sc(NCc2ccco2)c(-c2nc3ccccc3s2)c1N | > 55.7 µM (inactive) |  |
| CC1=C(C)C(=O)C(N2CCOCC2)=CC1=O | > 55.7 µM (inactive) |  |
| Cn1nc(-c2ccc(Cl)cc2)c2cc(C(=O)NCCCN3CCOCC3)sc21 | > 55.7 µM (inactive) |  |
| CCC(C(=O)Nc1ccccc1OC)n1c(C(=O)OC)cc2ccsc21 (stereo not given) | > 55.7 µM (inactive) |  |
| CC1CCN(C(=O)Cn2c(=O)n(CCc3ccccc3)c(=O)c3ccccc32)CC1 | > 55.7 µM (inactive) |  |
| Cc1ccccc1C1c2[nH]c3ccccc3c2CCN1C(=O)c1ccc(=O)n(C)n1 (stereo not given) | > 55.7 µM (inactive) |  |
| COc1ccc(CN2CCN(S(=O)(=O)c3ccc(C)cc3)CC2)cc1Br | > 55.7 µM (inactive) |  |
